Assay results reported in US20020028807A1, “Non-nucleoside reverse transcriptase inhibitors” (priority 2000, published 2002).

How the values were obtained:
[1] = molecular target: T1, HIV-1 RT V106A (Human immunodeficiency virus type 1 group M subtype B, UniProt P03366, V705A); assay: Reverse transcriptase (RT) assay, V106A mutant; assay type: biochemical
T1 construct: an HIV RT clone pKRT2 containing only the RT p66 gene regulated by the lac operon/trc promoter; made in house; host or cells: E. coli JM109, vector pKK233-2
Text: (§1) Among the enzymes for which Human Immunodeficiency Virus (HIV-1) encodes is a reverse transcriptase (1), so-named because it transcribes a DNA copy from an RNA template. This activity can be quantitatively measured in a cell-free enzyme assay and is based upon the observation that reverse transcriptase is able to use a synthetic template poly r(C) primed with a biotinylated oligo d(G) to transcribe a radio-labelled DNA strand utilising 3H-dGTP as a substrate. The assay described below utilises the wild-type enzyme (which is the predominant form of the enzyme observed in patients infected with HIV-1) and can also be used with mutant RT enzymes (for example, Y181C, prepared by site-directed mutagenesis in which the tyrosine residue at codon 181 has been replaced by a cysteine residue) in analogous assay conditions. This assay allows compounds to be evaluated for their effectiveness at inhibiting the mutant enzymes.
(§2) Some HIV-1 IIIB clone BH10 RT mutants were provided by Dr. C.-K. Shih (Boehringer Ingelheim Pharmaceutials Inc., U.S.A.) in the vector pKK233-2 (Pharmacia). Briefly an HIV RT clone pKRT2 containing only the RT p66 gene regulated by the lac operon/trc promoter was obtained from Dr. W. Summers (Yale University) (2). A variety of specific amino acid substitutions were introduced into the wild-type RT gene by site-directed mutagenesis. RT clones were subcloned into the pKK233-2 bacterial expression vector. Clones provided included wild-type, Val106Ala, Tyr181Cys, Tyr188Cys, Tyr188Leu, Gly190Ala and Pro236Leu. Others were made in-house by site-directed mutagenesis of the pKK233-2 RT clones including Lys103Asn, Lys103Asn/Tyr181Cys, Lys103Asn/Leu100Ile, Lys103Asn/Pro225His, and Lys103Asn/Val108Ile.
(§3) Purification of recombinant reverse transcriptase was performed using a combination of methods previously described (3). A single colony from a fresh plate of transformed JM109 cells was used to initiate growth of a pre-culture grown o/n at 37° C. Two liters of growth medium were inoculated with this pre-culture. At OD600˜1.5 (5-6 h at 37° C.), RT gene expression was induced with IPTG (1 mM final), and the fermentation was continued for a few more hours at 37° C. After centrifugation, supernatants were discarded while cell pellets were pooled and stored at −80° C. until purification. Cells were thawed at 4° C. overnight and suspended in lysis buffer (MES 50 mM pH 6, EDTA 1 mM, 10% v/v glyerol, 0.02% w/v OBG, 0.02% w/v sodium azide). Lysozyme was added and the mixture was incubated on ice for 40 minutes. After homogenization using a bounce in presence of lysozyme and sonication, the cells were centrifuged for 30 minutes. Supernatant (S1) was saved and stored at 4° C. The centrifuged pellet was resuspended in extraction buffer (MES 50 mM pH 6, KPO4 50 mM pH 6, KCl 100 mM, 10% v/v glycerol, 0.02% w/v OBG, 0.02% w/v sodium axide) and stirred for 30 minutes at 4° C. This second mixture was centrifuged again and the supernatant (S2) was saved. The above procedure was repeated 2 more times saving supernatants S3 and S4 and one last extraction was performed overnight (S5). Polymin P (0.005% final) was added to the combined supernatants to remove nucleic acids. This solution was stirred for 75 minutes at 4° C. and centrifuged for 1 h. The supernatant (SS1) was precipitated on ice with 20% w/v ammonium sulfate and stirred for 1 h at 4° C. The mixture was then centrifuged and the resulting supernatant (SS2) was precipitated with additional 40% w/v ammonium sulfate (60% total), stirred for 1 h and centrifuged again. The final pellet (P1) was stored overnight at 4° C. before undergoing purification the following day. All steps of the purification were performed at 4° C. unless otherwise stated.
(§4) Pellet (P1) was resuspended into MES 50 mM pH 6, KPO4 10 mM pH 6, KCl 100 mM, 10% v/v glycerol, 0.02% w/v OBG, 0.02% w/v sodium azide. The suspension was dialysis against the same buffer overnight using 12-14 kD MWCO dialysis tubing. […]

[2] = test system: HIV coding for mutant reverse transcriptase K103N/V108I; assay: ELISA (p24) assay of HIV replication in C8166 cell culture, K103N/V108I virus; assay type: cell-based, HIV-1; conditions: Human immunodeficiency virus 1, C8166, 72 h, read-out: EC50 K103N/V108I
Description: (§5) Compounds of the invention were tested for their ability to inhibit HIV replication in cell culture in a 96-well plate assay. Complete RPMI 1640, consisting of RPMI 1640+10% fetal bovine serum, 10 μg/ml gentamycin and 10 μM β-mercaptoethanol was used for dilution of the compound as well as cell growth medium. The T lymphocyte cell line C8166 was infected at a multiplicity of infection of 0.001 with viruses coding for wild-type and mutant reverse transcriptase. Cells were then incubated for three days in the presence of serial dilutions of the compounds of the invention. The supernatant was pooled from eight replica wells and the concentration of extracellular p24 was determined using a commercially available HIV-1 p24 antigen assay kit (Beckman-Coulter®). The level of inhibition (% inhibition) was calculated with the following equation: [formula]

[3] = molecular target: T2, HIV-1 RT Y181C (Human immunodeficiency virus type 1 group M subtype B, UniProt P03366, Y780C); assay: Reverse transcriptase (RT) assay, Y181C mutant; assay type: biochemical
T2 construct: an HIV RT clone pKRT2 containing only the RT p66 gene regulated by the lac operon/trc promoter; made in house; host or cells: E. coli JM109, vector pKK233-2
Text: as §1, §2, §3, §4

[4] = molecular target: T3, HIV-1 RT K103N/Y181C (Human immunodeficiency virus type 1 group M subtype B, UniProt P03366, K702N/Y780C); assay: Reverse transcriptase (RT) assay, K103N/Y181C mutant; assay type: biochemical
T3 construct: an HIV RT clone pKRT2 containing only the RT p66 gene regulated by the lac operon/trc promoter; made in house; host or cells: E. coli JM109, vector pKK233-2
Text: as §1, §2, §3, §4

[5] = test system: HIV coding for mutant reverse transcriptase Y181C; assay: ELISA (p24) assay of HIV replication in C8166 cell culture, Y181C virus; assay type: cell-based, HIV-1; conditions: Human immunodeficiency virus 1, C8166, 72 h, read-out: EC50 Y181C
Description: as §5

[6] = test system: HIV coding for mutant reverse transcriptase V106A; assay: ELISA (p24) assay of HIV replication in C8166 cell culture, V106A virus; assay type: cell-based, HIV-1; conditions: Human immunodeficiency virus 1, C8166, 72 h, read-out: EC50 V106A
Description: as §5

[7] = molecular target: T4, HIV-1 RT wild-type (WT) (Human immunodeficiency virus type 1 group M subtype B, UniProt P03366); assay: Reverse transcriptase (RT) assay, wild-type enzyme; assay type: biochemical
T4 construct: an HIV RT clone pKRT2 containing only the RT p66 gene regulated by the lac operon/trc promoter; made in house; host or cells: E. coli JM109, vector pKK233-2
Text: as §1, §2, §3, §4

[8] = test system: HIV coding for mutant reverse transcriptase K103N/L100I; assay: ELISA (p24) assay of HIV replication in C8166 cell culture, K103N/L100I virus; assay type: cell-based, HIV-1; conditions: Human immunodeficiency virus 1, C8166, 72 h, read-out: EC50 K103N/L100I
Description: as §5

[9] = test system: HIV coding for mutant reverse transcriptase K103N; assay: ELISA (p24) assay of HIV replication in C8166 cell culture, K103N virus; assay type: cell-based, HIV-1; conditions: Human immunodeficiency virus 1, C8166, 72 h, read-out: EC50 K103N
Description: as §5

[10] = molecular target: T5, HIV-1 RT K103N/P225H (Human immunodeficiency virus type 1 group M subtype B, UniProt P03366, K702N/P824H); assay: Reverse transcriptase (RT) assay, K103N/P225H mutant; assay type: biochemical
T5 construct: an HIV RT clone pKRT2 containing only the RT p66 gene regulated by the lac operon/trc promoter; made in house; host or cells: E. coli JM109, vector pKK233-2
Text: as §1, §2, §3, §4

[11] = test system: HIV coding for mutant reverse transcriptase K103N/P225H; assay: ELISA (p24) assay of HIV replication in C8166 cell culture, K103N/P225H virus; assay type: cell-based, HIV-1; conditions: Human immunodeficiency virus 1, C8166, 72 h, read-out: EC50 K103N/P225H
Description: as §5

[12] = molecular target: T6, HIV-1 RT K103N (Human immunodeficiency virus type 1 group M subtype B, UniProt P03366, K702N); assay: Reverse transcriptase (RT) assay, K103N mutant; assay type: biochemical
T6 construct: an HIV RT clone pKRT2 containing only the RT p66 gene regulated by the lac operon/trc promoter; made in house; host or cells: E. coli JM109, vector pKK233-2
Text: as §1, §2, §3, §4

[13] = test system: HIV coding for wild-type reverse transcriptase (WT RT); assay: ELISA (p24) assay of HIV replication in C8166 cell culture, wild-type RT virus; assay type: cell-based, HIV-1; conditions: Human immunodeficiency virus 1, C8166, 72 h, read-out: EC50 WT RT
Description: as §5

[14] = molecular target: T7, HIV-1 RT K103N/V108I (Human immunodeficiency virus type 1 group M subtype B, UniProt P03366, K702N/V707I); assay: Reverse transcriptase (RT) assay, K103N/V108I mutant; assay type: biochemical
T7 construct: an HIV RT clone pKRT2 containing only the RT p66 gene regulated by the lac operon/trc promoter; made in house; host or cells: E. coli JM109, vector pKK233-2
Text: as §1, §2, §3, §4

[15] = molecular target: T8, HIV-1 RT K103N/L100I (Human immunodeficiency virus type 1 group M subtype B, UniProt P03366, K702N/L699I); assay: Reverse transcriptase (RT) assay, K103N/L100I mutant; assay type: biochemical
T8 construct: an HIV RT clone pKRT2 containing only the RT p66 gene regulated by the lac operon/trc promoter; made in house; host or cells: E. coli JM109, vector pKK233-2
Text: as §1, §2, §3, §4

[16] = molecular target: T9, HIV-1 RT Y188L (Human immunodeficiency virus type 1 group M subtype B, UniProt P03366, Y787L); assay: Reverse transcriptase (RT) assay, Y188L mutant; assay type: biochemical
T9 construct: an HIV RT clone pKRT2 containing only the RT p66 gene regulated by the lac operon/trc promoter; made in house; host or cells: E. coli JM109, vector pKK233-2
Text: as §1, §2, §3, §4

CCN1c2ncc(CCOc3cc[n+]([O-])c4ccccc34)cc2C(=O)Nc2c(C)ccnc21 [compound 12, 5,11-Dihydro-11-ethyl-4-methyl-8-{2-{(1-oxido-4-quinolinyl)oxy}ethyl}-6H-dipyrido[3,2-b:2′,3′-e][1,4]diazepin-6-one]
IC50 [1]: 121 nM
EC50 [2]: 5 nM
IC50 [3]: 38 nM
IC50 [4]: 212 nM
EC50 [5]: 2.7 nM
EC50 [6]: 12.4 nM
IC50 [7]: 12 nM
EC50 [8]: 2.9 nM
EC50 [9]: 2.8 nM
IC50 [10]: 38 nM
EC50 [11]: 1.5 nM
IC50 [12]: 31 nM
EC50 [13]: 0.26 nM
IC50 [14]: 75 nM
IC50 [15]: 124 nM
IC50 [16]: > 10000 nM
